Data taken from article PMC4897634, “Design of an α-helical antimicrobial peptide with improved cell-selective and potent anti-biofilm activity” (Scientific Reports, 2016).
In brackets after ≈: the same amount, converted by molar mass. Several values for one entry are separate records, joined by “and”; a condition that tells them apart may be missing. Equal values may be shown once. Where no end group is shown, it is not given here.

What was measured:
[1] = tested on: Klebsiella pneumonia (1.1736); assay: Antimicrobial activity, broth microdilution MIC; format: cell-based; settings: modified CLSI broth microdilution, LB medium, 1 × 10^6 CFU/ml, 37 °C, 18 to 20 hours, absorbance 600 nm
Method: (§1) The antibacterial activities of the peptides against three Gram-negative bacteria and three Gram-positive bacteria strains were measured using a modified version of the Clinical Laboratory and Standards Institute (CLSI) broth microdilution method as described previously. Three Gram-negative bacteria, Escherichia coli (1.8732), Pseudomonas aeruginosa (1.2421), and Klebsiella pneumonia (1.1736), and three Gram-positive bacteria, Staphylococcus aureus (1.8721), Staphylococcus epidermidis (1.4260), and Bacillus subtilis (1.3376), were purchased from the China General Microbiological Culture Collection Centre (CGMCC). Briefly, bacteria were grown in liquid LB medium (tryptone, 10 g/L, yeast extract, 5 g/L and NaCl, 10 g/L) at 37 °C to mid-log phase, and the bacteria were diluted to 1 × 10^6 colony-forming units (CFU)/ml. The peptides were serially diluted with phosphate-buffered saline (PBS), and 50 μl diluted peptides were added to 50 μl of the bacterial suspension in 96-well plate (Corning Inc., Lowell, MA, USA). After incubation at 37 °C for 18 to 20 hours, the absorbance of each well was recorded using a multi-well microplate reader (SpectraMax M5; Molecular Devices, Sunnyvale, CA, USA) at 600 nm. The lowest concentration at which the peptide inhibited complete growth of the bacteria was taken as the minimal inhibitory concentration (MIC).

[2] = tested on: Escherichia coli (1.8732); assay: Antimicrobial activity, broth microdilution MIC; format: cell-based; settings: modified CLSI broth microdilution, LB medium, 1 × 10^6 CFU/ml, 37 °C, 18 to 20 hours, absorbance 600 nm
Method: as §1

[3] = tested on: Bacillus subtilis (1.3376); assay: Antimicrobial activity, broth microdilution MIC; format: cell-based; settings: modified CLSI broth microdilution, LB medium, 1 × 10^6 CFU/ml, 37 °C, 18 to 20 hours, absorbance 600 nm
Method: as §1

[4] = tested on: Staphylococcus epidermidis (1.4260); assay: Antimicrobial activity, broth microdilution MIC; format: cell-based; settings: modified CLSI broth microdilution, LB medium, 1 × 10^6 CFU/ml, 37 °C, 18 to 20 hours, absorbance 600 nm
Method: as §1

[5] = tested on: Pseudomonas aeruginosa (1.2421); assay: Antimicrobial activity, broth microdilution MIC; format: cell-based; settings: modified CLSI broth microdilution, LB medium, 1 × 10^6 CFU/ml, 37 °C, 18 to 20 hours, absorbance 600 nm
Method: as §1

[6] = tested on: Staphylococcus aureus (1.8721); assay: Antimicrobial activity, broth microdilution MIC; format: cell-based; settings: modified CLSI broth microdilution, LB medium, 1 × 10^6 CFU/ml, 37 °C, 18 to 20 hours, absorbance 600 nm
Method: as §1

Gram-negative bacteria = format: cell-based, E. coli, P. aeruginosa, K. pneumoniae; settings: for TI, therapeutic index: ratio of MHC to GM
Method: (§2) The antimicrobial activities of the peptides, indicated by the minimum inhibitory concentrations (MIC), were determined against a range of Gram-negative (Table 3) and Gram-positive bacterial strains (Table 4). The geometric mean of MIC values (GM) from the three strains was calculated to provide an overall evaluation of antimicrobial activity.
(§3) The therapeutic index (TI) is defined as the ratio of the minimum haemolytic concentration (MHC) of peptides to the GM of peptides, and this value was used to evaluate cell selectivity of peptides towards the negatively charged region of bacterial cell membranes over the zwitterionic mammalian cell membranes.
as §1

Gram-positive bacteria = format: cell-based, S. aureus, S. epidermidis, B. subtilis; settings: for TI, therapeutic index: ratio of MHC to GM
Method: as §2, §3, §1

human erythrocytes = assay: Haemolytic activity; format: cell-based; settings: 37 °C, 30 min; for MHC, minimum haemolytic concentration: concentration causing 10% haemolysis of hRBC, 200 μM used when no haemolysis detectable at 100 μM; for haemolysis rate / haemolytic activity: human erythrocytes, relative to 0.1% Triton X-100; for haemolytic activity: 25 μM peptide
Method: Haemolytic activity of the peptides was assayed by a standard procedure with slight modification. Fresh human erythrocytes were washed three times and resuspended at 1.25% haematocrit in PBS. Forty microlitres PBS-diluted peptide solution was added to a V-bottom 96-well plate (Corning Inc., Lowell, MA, USA), and 160 μl of erythrocytes was added. After incubation at 37 °C for 30 min, the samples were centrifuged, and the absorbance of the supernatant was measured at 450 nm using a multi-well microplate reader (SpectraMax M5; Molecular Devices, Sunnyvale, CA, USA) and compared with the 100% haemolysis caused by 0.1% Triton X-100. The percentage of haemolysis was calculated according to the equation (2): […]

[7] = tested on: L929 mouse fibroblast cells; assay: Cytotoxicity, MTT assay; format: cell-based; settings: 50 μM peptide, 1 hour
Method: The toxicity of the peptides against L929 mouse fibroblast cells was assessed by a standard MTT assay. L929 mouse fibroblast cells from ATCC (Manassas, VA, USA) were maintained in our laboratory. L929 cells were cultured in RPMI 1640 supplemented with 10% (v/v) FBS, 2 mM L-glutamine, 100 U/ml penicillin and […] streptomycin and maintained in a humidified incubator with 5% CO2 at 37 °C. L929 cells (5 × 10^3cells/well) were seeded in 96-well plates (Corning Inc., Lowell, MA, USA) and incubated overnight. Diluted peptides were added to L929 cells and incubated for 1 hour. Then, 20 μl of MTT (5 mg/ml) solution was added and incubated for 4 hours. The medium was removed, and 150 μl of DMSO was added to each well to dissolve the formazan crystals. The absorbance was measured at 490 nm on a microplate reader (SpectraMax M5; Molecular Devices, Sunnyvale, CA, USA). Cell viabilities were calculated by using the equation (3): […]

Row | Molecule | MIC K. pneumoniae [1] [µM] | MIC E. coli [2] [µM] | MIC B. subtilis [3] | MIC S. epidermidis [4] | MIC P. aeruginosa [5] [µM] | MIC S. aureus [6] [µM] | TI, therapeutic index (Gram-negative bacteria; Gram-negative bacteria) | TI, therapeutic index (Gram-positive bacteria; Gram-positive bacteria) | MHC, minimum haemolytic concentration (human erythrocytes) | viability of treated L929 cells [7] [%] | haemolysis rate (human erythrocytes; 100 μM peptide) [%] | haemolysis rate (human erythrocytes; 3.13 μM peptide) [%] | GM, geometric mean of MIC (Gram-negative bacteria; Gram-negative strains E. coli, P. aeruginosa, K. pneumoniae) [µM] | Fold (Gram-negative bacteria; Table S2, TI compared with melittin, Gram-negative bacteria) | GM, geometric mean of MIC (Gram-positive bacteria; Gram-positive strains S. aureus, S. epidermidis, B. subtilis) [µM] | Fold (Gram-positive bacteria; Table S3, TI compared with melittin, Gram-positive bacteria) | haemolytic activity (human erythrocytes) [%]
1 | RIGVLLARLPKLFSLFKLMGKKV-NH2 [RV-23, reference compound] | 6.25 | 6.25 | 3.125 µM and 3.13 µM | 3.125 µM and 3.13 µM | 6.25 | 12.5 | 1 | 1.26 | 6.25 µM | – | – | – | – | – | – | – | –
2 | RIGSILGRLAKGLPTLISWIKNR-NH2 [A(A1R, A8R)] | 6.25 | 6.25 | 6.25 µM | 3.13 µM | 6.25 | 12.5 | 1 | 1 | 6.25 µM | – | – | – | – | – | – | – | –
3 | AIGSILGALAKGLPTLRSWIKNR-NH2 [A(I17R)] | 25 | 12.5 | 3.13 µM | 6.25 µM | 12.5 | 25 | 1.59 | 3.17 | 25 µM | 6.6 | 74 | – | – | – | – | – | –
4 | RIGSILGALAKGLPTLISWIKNR-NH2 [A(A1R)] | 12.5 | 12.5 | 6.25 µM | 3.13 µM | 6.25 | 6.25 | 0.31 | 0.63 | 3.12 µM and 3.13 µM | – | – | 25.9 | – | – | – | – | –
5 | RIGSILGRLAKGLPTLRSWIKNR-NH2 [A(A1R, A8R, I17R)] | 12.5 | 12.5 | 12.5 µM | 3.13 µM | 12.5 | 100 | 8 | 6.35 | 100 µM | – | – | – | – | – | – | – | –
6 | M(G1R, V8R, I17R): melittin analogue with residues at position 1, 8 and 17 replaced by positively charged residues (RIGAVLKRLTTGLPALRSWIKRKRQQ; not fully specified; ends and bridges not checked; UniProt P01501 44-69, looked up, variant G1R V8R I17R) | 12.5 | 25 | 3.125 µM | 6.25 µM | 25 | 100 | 10.1 | 16 | 200 µM | – | – | – | 19.8 | 101 | 12.5 | 64 | –
7 | AIGSILGALAKGLPTLKSWIKNR-NH2 [A(I17K)] | 50 | 25 | 6.25 µM | 12.5 µM | 25 | 50 | 1.59 | 3.17 | 50 µM | 7.9 | 33 | – | – | – | – | – | 6.4
8 | RIGSILGALAKGLPTLKSWIKNR-NH2 [A(A1R, I17K)] | 25 | 25 | 6.25 µM | 6.25 µM | 12.5 | 100 | 5.04 | 6.35 | 100 µM | 6.3 | – | – | – | – | – | – | –
9 | CC[C@H](C)[C@H](NC(=O)CN)C(=O)NCC(=O)N[C@@H](C)C(=O)N[C@H](C(=O)N[C@@H](CC(C)C)C(=O)N[C@@H](CCCCN)C(=O)N[C@H](C(=O)N[C@@H](CC(C)C)C(=O)N[C@H](C(=O)N[C@H](C(=O)NCC(=O)N[C@@H](CC(C)C)C(=O)N1CCC[C@H]1C(=O)N[C@@H](C)C(=O)N[C@@H](CC(C)C)C(=O)N[C@H](C(=O)N[C@@H](CO)C(=O)N[C@@H](Cc1c[nH]c2ccccc12)C(=O)N[C@H](C(=O)N[C@@H](CCCCN)C(=O)N[C@@H](CCCNC(=N)N)C(=O)N[C@@H](CCCCN)C(=O)N[C@@H](CCCNC(=N)N)C(=O)N[C@@H](CCC(N)=O)C(=O)N[C@@H](CCC(N)=O)C(N)=O)[C@@H](C)CC)[C@@H](C)CC)[C@@H](C)O)[C@@H](C)O)C(C)C)C(C)C [Melittin, reference compound] | 6.25 (≈ 17.8 µg/mL) | – | – | – | – | – | – | – | 0.78 µM | – | – | – | – | – | – | – | –
10 | AIGSILGRLAKGLPTLISWIKNR-NH2 [A(A8R)] | 12.5 | 12.5 | 3.13 µM | 3.13 µM | 12.5 | 3.13 | 0.25 | 1 | 3.12 µM and 3.13 µM | – | – | 12.9 | – | – | – | – | 98.3
